Test results from patent US20080268535A1, “Method for Inducing the Differentiation of Human Myelogenous Leukemia Cells Into Megakarocytes or Thrombocytes” (EWHA University - Industry Collaboration Foundation, priority 2005, published 2008).
“Also recorded” adds a separate entry of the source.

Tests used:
Type in all cases: cell-based, human
K562 cells [1] = test: Transmission electron microscopy of cells differentiated from K562 cells on OP9 cells; settings: 40 μg/ml, 5 days
Method: OP9 cells were aliquoted at a density of 1×10^5 cells in 6-well plates and incubated for 24 hrs. After the OP9 cells were uniformly attached onto the bottom of the plates, K562 cells were layered at a density of 1×10^5 cells over the OP9 cells in 6-well plates. The cells were treated with 40 μg/ml of (R)-NALPCE before incubation for 5 days. Following centrifugation (1,000 rpm, 5 min), the cells were pre-fixed with 2.5% glutaraldehyde in PBS (pH 7.4) for 24 hrs. Thereafter, cell pellets obtained by centrifugation (4,000 rpm, 10 min) were fixed for 1 hr with 1% osmium tetraoxide in 0.1 M PBS (pH 7.4). After being washed with PBS, the post-fixed samples were dehydrated with 60, 70, 80, 90, and 95% ethanol for 10 min each and then twice with 100% ethanol for 10 min each, and embedded in epoxy resin. The embedded samples were sectioned into slices 1 μm thick using an ultramicrotome diamond knife (Richert-Jung, U.S.A.) and stained with 1% toluidine blue for optical microscopy. Separately, ultra-thin sections ranging in thickness from 60 to 70 nm were prepared and stained sequentially with 1-2% uranyl acetate and 1% lead citrate for transmission electron microscopy, in which electrons were accelerated at 75 kV using H-600 TEM (Hitachi, Japan).

HEL cells = test: Megakaryocyte differentiation, CD41/CD61 expression over time by FACS, HEL cells; settings: 5 μg/ml, 5 days
Method: HEL cells were aliquoted at a density of 3×10^5 cells per well in 6-well plates and treated with 5 μg/ml of (R)-NALPCE, followed by incubation for 5 days. After centrifugation (1,000 rpm, 5 min), the cell pellets thus obtained were washed three times with 0.01% bovine serum albumin (BSA) in PBS. The cells were incubated with 10 μl of anti-CD41-fluorescein-5-isothiocyanate (FITC) (Dako Chemicals, Carpenteria, Calif.) or 20 μl of anti-CD61-phycoerythrin (PE) (BD Pharmingen) in 200 μl 0.01% bovine serum albumin (BSA)-PBS at 4° C. for 50 min with spinning to realize homogeneous fluorescent staining. After centrifugation (1,000 rpm, 10 min), the cell pellets thus obtained were rinsed three times with 0.01% bovine serum albumin (BSA)-PBS. Fluorescence was analyzed on a fluorescence-activated cell sorter (FACS) (Aria) using a Cellquest program.

K562 cells [2] = test: MTT cytotoxicity assay of (R)-NALPCE; settings: 10 to 50 μg/ml, 48 hrs incubation
Method: In order to examine whether the compound (R)-NALPCE is toxic to cells, MTT (3-[4,5-dimethylthiazol-2-yl]-2,5-diphenyltetrazolium bromide) assay was conducted in K562 cells which are the leukemia cells derived from human bone marrow. These cells were aliquoted at a density of 4×10^4 cells per well in 96-well plates and treated with various concentrations of (R)-NALPCE, followed by incubation for 48 hrs. Thereafter, an MTT solution was added in an amount of 20 μl to each well. Incubation at 37° C. for 4 hrs, treatment with a 20% sodium dodecyl sulfate (SDS) solution (in an equivolume mixture of N,N-dimethylformamide and distilled water), and incubation at 37° C. for 16 hrs were sequentially conducted in that order before the absorbance at 570 nm was read using an ELISA reader (Bio-Tek Instrument, Winiiski, Vt.). The assay was conducted in triplicate.

K562 cells [3] = test: Production of thrombocytes, K562 cells on OP9 cells, optical microscopy; settings: 40 μg/ml
Method: An experiment was conducted in a manner similar to that of Example 7. OP9 cells were aliquoted at a density of 1×10^5 cells per well in 6-well plates and incubated for 24 hrs. After OP9 cells were uniformly attached onto the bottom of the plates, K562 cells were layered at a density of 1×10^5 cells per well over the OP cells in the 6-well plates. Treatment with 40 μg/ml of (R)-NALPCE was conducted before incubation in a day-dependent manner for 5 days. They were observed under an optical microscope with 200× magnification.

K562 cells [4] = test: Differentiation of K562 cells layered on OP9 cells, CD41/CD61 by FACS
Method: OP9 cells were aliquoted at a density of 1×10^5 cells per well in 6-well plates and incubated for 24 hrs. After OP9 cells were uniformly attached onto the bottom of the plates, K562 cells were layered at a density of 1×10^5 cells per well over the OP cells in the 6-well plates. Treatment with 40 μg/ml of (R)-NALPCE was conducted before incubation in a day-dependent manner for 4 days. Following centrifugation (1,000 rpm, 5 min), the cell pellets thus obtained were rinsed three times with 0.01% bovine serum albumin (BSA) in PBS. Incubation with 10 μl of anti-CD41-fluorescein-5-isothiocyanate (FITC) (Dako Chemicals, Carpenteria, Calif.) and 20 μl of anti-CD61-phycoerythrin (PE) (BD Pharmingen) in 200 μl of 0.01% bovine serum albumin (BSA)-PBS was conducted at 4° C. for 50 min so as to achieve homogeneous fluorescent staining. After centrifugation (1,000 rpm, 10 min), the fluorescent-stained cell pellets thus obtained were washed three times with 0.01% bovine serum albumin (BSA) in PBS. Fluorescence was analyzed on a fluorescence-activated cell sorter (FACS) (Aria) using a Cellquest program.

CCCCCCCCCCCCCCCCCC(=O)NC(COP(=O)([O-])OCC[N+](C)(C)C)C(=O)OC [(R)-NALPCE, N-steroyl-O-phosphocholine-D-serine methyl ester]
maturity of megakaryocytes (TEM) (K562 cells [1]): have demarcation channels within which platelets are held | morphology of released platelets (TEM) (K562 cells [1]): morphology similar to that of the pre-existing blood platelets | polymorphonuclear megakaryocytes having at least two nuclei among the differentiated cells (K562 cells [1]; TEM): ≥ 40% | CD41 and CD61 expression rate (HEL cells): increase in expression rate in a day-dependent manner | cytotoxicity on K562 cells (MTT) (K562 cells [2]): does not exert cytotoxicity | cell size (optical microscope) (K562 cells [3]; 5 days): increased in size in a time-dependent manner | appearance of anucleate cells (K562 cells [3]; from Day 4 after the treatment): anucleate cells, such as thrombocytes, were observed | increase in the count of CD41-positive cells, with OP9 cells versus alone (K562 cells [4]; K562 cells on OP9 cells, 40 μg/ml, 4 days): 15% | differentiation inductivity compared with PMA (K562 cells [4]; in combination with OP9 cells): comparable with the differentiation inductivity of PMA; also recorded: as good as that of PMA
